Data taken from PMC10998878, “Inhibition of acyl-CoA binding protein (ACBP) by means of a GABAARγ2-derived peptide” (Cell Death & Disease, 2024).
“Also recorded” adds a separate entry of the source.

What was measured:
[1] = molecular target: T1, recombinant murine ACBP/DBI (Mus musculus, UniProt P31786); assay: Surface plasmon resonance (Biacore 2000) real time interaction analysis; type: binding; conditions: for interaction with recombinant ACBP/DBI, in words: surface plasmon resonance, HBS-EP pH 7.4, 25 °C, 10 µM and 100 µM peptide
T1 construct: biotin (biotinylated); purchased Institute of Psychiatry and Neuroscience of Paris, France
T1 sequence (P31786 1-87): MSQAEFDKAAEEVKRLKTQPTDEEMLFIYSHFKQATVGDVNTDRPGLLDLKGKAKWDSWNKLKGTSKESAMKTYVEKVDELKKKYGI
Experimental: Kinetics of interaction of recombinant murine ACBP/DBI (Institute of Psychiatry and Neuroscience of Paris, France) with GABAARγ2 -derived eicosapeptide or its mutated derivative (synthesized by Biosynth ltd) was analyzed by surface plasmon resonance-based biosensor system – Biacore 2000 (Cytiva Life Sciences, Biacore, Uppsala, Sweden). SA sensor chip (Cytiva Life Sciences, Biacore) was activated by three consequent injections of 1 M NaCl, 0.05 M NaOH solution. After washing the sensor chip surface, biotinylated ACBP/DBI was immobilized on it. ACBP was diluted in HBS-EP buffer (10 mM HEPES […], 150 mM NaCl, 3 mM EDTA, and 0.005% Tween-20) at final concentration of 10 µg/mL and injected for 5 min contact time. The achieved immobilization density of ACBP was 1600 resonance units.
All analyses were performed in HBS-EP buffer (0.01 M HEPES pH 7.4, 0.15 M NaCl, 3 mM EDTA, 0.005% v/v Surfactant P20; 0.22 µm filtered and degassed). The system was run at flow rate of 30 μL/min. The temperature on chip surface was set to 25 °C. GABAARγ2-derived eicosapeptide or its mutated derivative (both stocked in DMSO at 1 mg/mL) were diluted in HBS-EP to 10 µM and 100 µM. The peptides were injected over immobilized ACBP/DBI and a control surface (streptavidin alone). The association and dissociation phases of the interaction were followed for 4 and 5 min, respectively. The interaction of peptides with ACBP/DBI was assessed by monitoring the dissociation from the immobilized protein. For visualization of the binding response Graph Pad Prism software was used.

Huh-7 cells = assay: WST-8 conversion (metabolic activation) by Huh-7 cells; type: cell-based, human; conditions: RecACBP/DBI pre-incubated overnight with eicosapeptide, 4 h
Experimental: Media and cell culture supplements were purchased from Gibco-Invitrogen (Carlsbad, CA, USA). Plasticware was purchased from Corning B.V. Life Sciences (Schiphol-Rijk, The Netherlands). Unless reported otherwise, the cell line used in this study was cultured at standard conditions (37 °C, 5% CO2, Dulbecco’s modified Eagle’s medium containing 10% fetal bovine serum, 10 mM HEPES buffer, 100 mg/L sodium pyruvate, 100 U/mL penicillin G sodium, and 100 µg/mL streptomycin sulfate). 2-deoxy-D-glucose (# D8375) and rotenone (# R8875) were purchased from Sigma (Burlington, MA, USA). Human hepatocellular carcinoma (Huh-7) cell line was used for in vitro experiments. Cells were plated in 6- or 96-well plates and grown for 24 h before treatments.
WST-8 conversion assays were conducted utilizing the Cell Counting Kit-8 (Sigma-Aldrich, #96992). Cells were seeded in a 96-well plate at a density of 3000 cells per well and incubated overnight for adherence. Then, the culture medium was removed, and fresh medium containing the specified treatments was added to the wells. Immediately following the addition of treatments, 10 μL of CCK-8 reagent was introduced to each well. Subsequently, the cells were incubated for 4.5 h at 37 °C to facilitate the conversion of WST-8 in response to cellular activity. Following the incubation period, the absorbance at 450 nm was quantified using a VICTOR® Nivo™ microplate reader. This measurement served as an indicator of WST-8 conversion, reflecting cellular metabolic activity.
Fig. 6 Inhibition of the metabolic effects of ACBP/DBI on hepatocytes by the GABAARγ2-derived eicosapeptide. A WST-8 conversion by murine primary hepatocytes treated with increasing concentrations of recombinant ACBP/DBI protein (RecACBP/DBI) for 4 h. Hepatocytes were isolated from tamoxifen-induced Acbp/Dbi f/f or Acbp/Dbi KO full-body genetic background mice (white- or blue-colored graphs respectively). […] For statistical analysis p values are calculated by one-way ANOVA. B WST-8 conversion by control (shUNR) and ACBP/DBI-knocked down (shACBP/DBI) human Huh-7 cells treated with increasing concentrations of RecACBP/DBI for 4 h. shUNR and shACBP/DBI cells are represented by white- or blue-colored graphs respectively. […] C WST-8 conversion by Huh-7 cells treated with RecACBP/DBI or negative control (4 h). Cells were pre-treated with 2-deoxy-D-glucose (2-Deoxy-D-glu; 300 µM) or vehicle (2 h). […] D WST-8 conversion by Huh-7 cells treated with RecACBP/DBI or negative control (4 h). Cells were pre-treated with rotenone (0.5 µM) or vehicle (2 h). […] E WST-8 conversion by Huh-7 cells treated with RecACBP/DBI or negative control (4 h). Prior to administration, RecACBP/DBI was overnight pre-incubated with monoclonal antibody (α-ACBP/DBI) or isotype IgG1. […] F WST-8 conversion by Huh-7 cells treated with RecACBP/DBI or negative control (4 h). Prior to administration, RecACBP/DBI was overnight pre-incubated with GABAARγ2 (WT or F77I-mutated) eicosapeptides.

[2] = tested on: liver autophagy, C57BL/6 mice; assay: Liver autophagy activation in vivo (LC3 lipidation); set-up: species or system mouse; conditions: C57BL/6 male mice, peptide 5 mg/kg i.v. 4 h and 30 min before sacrifice, with or without leupeptin 30 mg/kg i.p., LC3 immunoblot, n = 5
Experimental: Ten-week-old C57BL/6 male mice were injected with GABAARγ2 peptides (5 mg/kg, i.v., dissolved in PBS) 4 h and 30 min before sacrifice. For inhibition of the autophagy flux, leupeptin (Leu, 30 mg/kg B.W., dissolved in PBS) was injected 2 h before sacrifice via an intraperitoneal (i.p.) injection. Control animals were i.v. injected with the vehicle (DMSO, 0.01%) and i.p. injected with PBS. All animals were sacrificed, and livers were snap-frozen in liquid nitrogen and stored at −80 °C.
Protein lysates were prepared from liver, epididymal white adipose tissue (eWAT), brown adipose tissue (BAT), muscle, heart or Hep55.1c cells. Immunoblot analysis was performed for GABAARγ2 (Abcam #ab87328), mouse ACBP/DBI (Abcam, #ab231910), Human ACBP (Santa-Cruz #sc-376853), MAP1LC3B (#2775, Cell Signaling Technologies), and β-actin (Abcam, #ab49900), as previously described..

[3] = listed as GABAARγ2-derived eicosapeptide

Sequence: INMEYTIDIFFAQTWYDRRL [GABAARγ2-EP-WT]
- association with immobilized ACBP/DBI (SPR) ([1]; biotinylated recombinant ACBP/DBI on SA chip (1600 RU), peptide 10 µM and 100 µM in HBS-EP, pH 7.4, 25 °C, 30 μL/min, association 4 min, WT vs F77I): associated more rapidly
- dissociation from immobilized ACBP/DBI (SPR) ([1]; biotinylated recombinant ACBP/DBI on SA chip (1600 RU), peptide 10 µM and 100 µM in HBS-EP, pH 7.4, 25 °C, 30 μL/min, dissociation 5 min, WT vs F77I): dissociated more slowly from ACBP/DBI than GABAARγ2-EP-F77I
- interaction with recombinant ACBP/DBI, in words [1]: efficiently interacts with native and recombinant ACBP/DBI; also recorded: able to interact with ACBP/DBI
- interaction with recombinant ACBP/DBI, in words [1, 3]: validated the interaction
- inhibition of RecACBP/DBI-stimulated WST-8 conversion (eicosapeptides) (Huh-7 cells; n = 3): inhibited the ACBP/DBI-stimulated metabolic activation of Huh7 cells; also recorded: efficiently blocked the effects of recombinant human ACBP/DBI protein on human hepatocytes
- inhibition of RecACBP/DBI-stimulated WST-8 conversion (eicosapeptides) (Huh-7 cells; n = 3, listed as GABAARγ2-derived eicosapeptide): inhibited the metabolic activation of hepatocytes by recombinant ACBP/DBI protein in vitro
- activation of autophagy in the liver [2]: activation of autophagy in the liver was induced
- activation of autophagy in the liver [2, 3]: induced autophagy in the liver
